Read-outs that look alike come from different tables or passages of the source.
What was measured:
Test in all cases: Glasshouse assay for herbicidal activity (pre- and post-emergence), percentage phytotoxicity
Format in all cases: in vivo
Lolium perenne (LOLPE) = details: Lolium perenne, rate 250 g/ha
How it was run: (§1)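 Pot-grown, standard soil. PRE: spray 1 d post-sowing; POST: ~12 d. Glasshouse 24/18 °C (warm spp.) / 20/16 °C (cool spp.), 16 h light, 65% RH, watered 2×/day. Visual % damage, 20 DAA PRE, 15 DAA POST.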

[1] = tested on: Echinochloa crus-galli (ECHCG); details: Echinochloa crus-galli, rate 250 g/ha
How it was run: as §1

[2] = tested on: Alopecurus myosuroides (ALOMY); details: Alopecurus myosuroides, rate 250 g/ha
How it was run: as §1

Avena fatua (AVEFA) = details: Avena fatua, rate 250 g/ha
How it was run: as §1

[3] = post-emergence, 360 h, POST-emergence, visual score 15 DAA (100%=total damage, 0%=no damage), read-out: Post-emergence herbicidal activity (percentage phytotoxicity) LOLPE POST
[4] = pre-emergence, 480 h, PRE-emergence, visual score 20 DAA (100%=total damage, 0%=no damage), read-out: Pre-emergence herbicidal activity (percentage phytotoxicity) LOLPE PRE
[5] = post-emergence, 360 h, POST-emergence, visual score 15 DAA (100%=total damage, 0%=no damage), read-out: Post-emergence herbicidal activity (percentage phytotoxicity) ECHCG POST
[6] = pre-emergence, 480 h, PRE-emergence, visual score 20 DAA (100%=total damage, 0%=no damage), read-out: Pre-emergence herbicidal activity (percentage phytotoxicity) ECHCG PRE
[7] = post-emergence, 360 h, POST-emergence, visual score 15 DAA (100%=total damage, 0%=no damage), read-out: Post-emergence herbicidal activity (percentage phytotoxicity) ALOMY POST
[8] = pre-emergence, 480 h, PRE-emergence, visual score 20 DAA (100%=total damage, 0%=no damage), read-out: Pre-emergence herbicidal activity (percentage phytotoxicity) ALOMY PRE
[9] = post-emergence, 360 h, POST-emergence, visual score 15 DAA (100%=total damage, 0%=no damage), read-out: Post-emergence herbicidal activity (percentage phytotoxicity) AVEFA POST
[10] = pre-emergence, 480 h, PRE-emergence, visual score 20 DAA (100%=total damage, 0%=no damage), read-out: Pre-emergence herbicidal activity (percentage phytotoxicity) AVEFA PRE

Compound | pest or weed control at 250 g/ha (Lolium perenne (LOLPE); [3]) [%] | pest or weed control at 250 g/ha (Lolium perenne (LOLPE); [4]) [%] | pest or weed control at 250 g/ha [1, 5] [%] | pest or weed control at 250 g/ha [1, 6] [%] | pest or weed control at 250 g/ha [2, 7] [%] | pest or weed control at 250 g/ha [2, 8] [%] | pest or weed control at 250 g/ha (Avena fatua (AVEFA); [9]) [%] | pest or weed control at 250 g/ha (Avena fatua (AVEFA); [10]) [%]
Cc1cc(-c2ccc(Br)cn2)cc(C)c1C1C(=O)CC(CC(=O)N2CCOCC2)C1=O (stereo not drawn) [Compound B299] | 100 | 100 | 100 | 100 | 90 | 90 | 90 | 90
C=CC(C)NC(=O)CC1CC(=O)C(c2c(C)cc(-c3ncc(Cl)cc3F)cc2C)C1=O (stereo not drawn) [Compound B300] | 100 | 100 | 100 | 100 | 100 | 100 | 100 | 100
C=CC(C)NC(=O)CC1CC(=O)C(c2c(C)cc(Br)cc2C)C1=O (stereo not drawn) [Compound B301] | 50 | 70 | 70 | 60 | 70 | 80 | 70 | 50
Cc1cc(-c2ncc(F)cn2)cc(C)c1C1C(=O)CC(CC(=O)NC/C=C/Cl)C1=O (stereo not drawn) [Compound B302] | 100 | 100 | 100 | 100 | 100 | 100 | 100 | 100
C/C=C/CNC(=O)CC1CC(=O)C(c2c(C)cc(-c3ncc(F)cn3)cc2C)C1=O (stereo not drawn) [Compound B303] | 100 | 80 | 100 | 100 | 100 | 90 | 100 | 80
C=C(F)CNC(=O)CC1CC(=O)C(c2c(C)cc(-c3ncc(F)cc3F)cc2C)C1=O (stereo not drawn) [Compound B304] | 100 | 100 | 100 | 90 | 100 | 100 | 100 | 100
CCNC(=O)CC1CC(=O)C(c2c(C)cc(-c3ncc(Cl)cn3)cc2C)C1=O (stereo not drawn) [Compound B305] | 100 | 100 | 100 | 100 | 100 | 100 | 100 | 100
CCNC(=O)CC1CC(=O)C(c2c(C)cc(-c3ccc(Cl)cn3)cc2C)C1=O (stereo not drawn) [Compound B306] | 100 | 100 | 100 | 100 | 100 | 100 | 100 | 100
CCNC(=O)CC1CC(=O)C(c2c(C)cc(-n3cc(Cl)cn3)cc2C)C1=O (stereo not drawn) [Compound B307] | 90 | 100 | 100 | 100 | 90 | 100 | 100 | 100
Cc1cc(-n2cc(Cl)cn2)cc(C)c1C1C(=O)CC(CC(=O)NC/C=C/Cl)C1=O (stereo not drawn) [Compound B308] | 60 | 80 | 100 | 80 | 90 | 90 | 100 | 80
COCC(C)NC(=O)CC1CC(=O)C(c2c(C)cc(-n3cc(Cl)cn3)cc2C)C1=O (stereo not drawn) [Compound B309] | 60 | 80 | 100 | 100 | 100 | 90 | 100 | 80
COCCCNC(=O)CC1CC(=O)C(c2c(C)cc(-n3cc(Cl)cn3)cc2C)C1=O (stereo not drawn) [Compound B310] | 70 | 90 | 100 | 90 | 90 | 90 | 100 | 80
C=C(C)CNC(=O)CC1CC(=O)C(c2c(C)cc(-n3cc(Cl)cn3)cc2C)C1=O (stereo not drawn) [Compound B311] | 70 | 90 | 100 | 90 | 80 | 80 | 90 | 80
Cc1cc(-n2cc(Cl)cn2)cc(C)c1C1C(=O)CC(CC(=O)NCc2cccc(Br)c2)C1=O (stereo not drawn) [Compound B312] | 80 | 70 | 100 | 70 | 90 | 10 | 100 | 10
C#CC(C)(C)NC(=O)CC1CC(=O)C(c2c(C)cc(-n3cc(Cl)cn3)cc2C)C1=O (stereo not drawn) [Compound B313] | 70 | 90 | 90 | 100 | 90 | 90 | 70 | 80
CCCNC(=O)CC1CC(=O)C(c2c(C)cc(-n3cc(Cl)cn3)cc2C)C1=O (stereo not drawn) [Compound B314, 2-[3-[4-(4-chloropyrazol-1-yl)-2,6-dimethyl-phenyl]-2,4-dioxo-cyclopentyl]-N-propyl-acetamide] | 90 | 90 | 80 | 100 | 100 | 100 | 100 | 90
CCC(C)NC(=O)CC1CC(=O)C(c2c(C)cc(-n3cc(Cl)cn3)cc2C)C1=O (stereo not drawn) [Compound B315] | 80 | 70 | 100 | 100 | 90 | 80 | 100 | 80
C=CC(C)NC(=O)CC1CC(=O)C(c2c(C)cc(-n3cc(Cl)cn3)cc2C)C1=O (stereo not drawn) [Compound B316] | 90 | 80 | 100 | 90 | 90 | 90 | 100 | 80
C#CCNC(=O)CC1CC(=O)C(c2c(C)cc(-n3cc(Cl)cn3)cc2C)C1=O (stereo not drawn) [Compound B317] | 90 | 90 | 100 | 100 | 100 | 90 | 100 | 90
CCNC(=O)CC1CC(=O)C(c2c(C)cc(-c3ccc(C#N)cn3)cc2C)C1=O (stereo not drawn) [Compound B318] | 90 | 100 | 100 | 90 | 90 | 90 | 100 | 90
CC(C)=CNC(=O)CC1CC(=O)C(c2c(C)cc(-c3ccc(C#N)cn3)cc2C)C1=O (stereo not drawn) [Compound B319] | 60 | 0 | 100 | 0 | 70 | 0 | 80 | 0

— patent publication US10206394B2, “Herbicidal compounds” (Syngenta Participations AG, priority 2014, dated 2019)
